pIC50: −log10 of the molar value.
System: Plasmodium berghei
Assay: Luciferase/luciferin-expressing antifolate-resistant parasites were used to infect a culture of HepG2 cells that were pre-incubated with compounds. Infected hepatocytes emit light due to the luciferase reaction. Assay results are presented as the percent inhibition of light emission compared to control. […]
Type: functional
Settings: sporozoite; for IC90: read-out: LUCIFERASE INFECTION ASSAY - IC90
[1] = read-out: LUCIFERASE INFECTION ASSAY - IC50

Row | SMILES | IC90 [µM] | pIC50 [1] | other results
1 | CCOC(=O)c1ccc(Oc2nc3ccccc3nc2C(C#N)C(=O)OC)cc1 (stereo not drawn) | 7.6 |  | pIC50 (PBLUC_HILL_SLOPE 5.75, PBLUC_R_SQUARED 0.407, read-out: LUCIFERASE INFECTION ASSAY - IC50): 5.28
2 | CC(=O)O[C@H]1CC[C@]23C(=O)O[C@]45CC[C@H](C6=CC(=O)OC6)[C@@]4(C)CCC2C5CC[C@]3(O)C1 | 0.747 |  | pIC50 (HEPG2TOX_HILL_SLOPE 2.43, HEPG2TOX_R_SQUARED 0.931, PBLUC_HILL_SLOPE 2.64, PBLUC_R_SQUARED 0.666, read-out: LUCIFERASE INFECTION ASSAY - IC50): 6.49
3 | O=C(CCc1ncc(-c2ccccc2)o1)Nc1ncccc1O | > 10 | < 5.00 | 
4 | CC(C)Cc1nc2oc3c(NCCO)ncnc3c2c2c1CCCC2 | > 9.69 |  | pIC50 (PBLUC_HILL_SLOPE 4.31, PBLUC_R_SQUARED 0.188, read-out: LUCIFERASE INFECTION ASSAY - IC50): 5.16
5 | O=C(Nc1ccc(Cl)c(Cl)c1)Nc1ccnn1C1CCCCC1 | > 10 |  | pIC50 (PBLUC_HILL_SLOPE 0.873, PBLUC_R_SQUARED 0.34, read-out: LUCIFERASE INFECTION ASSAY - IC50): < 5.00
6 | FC(F)(F)c1cccc(-c2noc(CCc3nc4ccccc4[nH]3)n2)c1 | 7.22 |  | pIC50 (PBLUC_HILL_SLOPE 3.19, PBLUC_R_SQUARED 0.657, read-out: LUCIFERASE INFECTION ASSAY - IC50): 5.44
7 | CCCCn1nc(C(=O)NNC(=O)Nc2ccc([N+](=O)[O-])cc2)c2ccccc2c1=O | > 10 |  | pIC50 (HEPG2TOX_HILL_SLOPE 2.25, HEPG2TOX_R_SQUARED 0.286, read-out: LUCIFERASE INFECTION ASSAY - IC50): < 5.00
8 | Cc1ccc(-c2noc(CCC(=O)N3CCN(C/C=C/c4ccccc4)CC3)n2)cc1 | > 10 |  | pIC50 (HEPG2TOX_HILL_SLOPE 6.22, HEPG2TOX_R_SQUARED 0.551, PBLUC_HILL_SLOPE 3.17, PBLUC_R_SQUARED 0.265, read-out: LUCIFERASE INFECTION ASSAY - IC50): 5.29
9 | O=C(COC(=O)Cc1ccc(Cl)c(Cl)c1)Nc1ccc(OCc2ccccc2)cc1 | > 10 | < 5.00 | 
10 | CC(=O)c1cccc(-c2cnc3cnc(-c4cccc(F)c4)cn23)c1 | > 9.96 |  | pIC50 (PBLUC_HILL_SLOPE 3, PBLUC_R_SQUARED 0.624, read-out: LUCIFERASE INFECTION ASSAY - IC50): 5.12
11 | O=C(Nc1cccc(C#Cc2ccccc2)c1)c1ccoc1 | > 10 | < 5.00 | 
12 | O=C(CSc1ccccc1C(=O)N(Cc1ccco1)Cc1cccs1)NC12CC3CC(CC(C3)C1)C2 | 7.68 |  | pIC50 (FFLUC_HILL_SLOPE 5.22, FFLUC_R_SQUARED 0.381, HEPG2TOX_HILL_SLOPE 38.7, HEPG2TOX_R_SQUARED 0.813, PBLUC_HILL_SLOPE 3.47, PBLUC_R_SQUARED 0.525, read-out: LUCIFERASE INFECTION ASSAY - IC50): 5.39
13 | CCNc1nnc(SCC(=O)N2CCNC2=O)s1 | > 10 | < 5.00 | 
14 | O=C(NC1CC1)c1ccc(-c2cn3c(-c4ccc(CO)cc4)cnc3cn2)cc1 | > 8.58 |  | pIC50 (FFLUC_HILL_SLOPE 0.381, FFLUC_R_SQUARED 0.0382, PBLUC_HILL_SLOPE 16.7, PBLUC_R_SQUARED 0.0287, read-out: LUCIFERASE INFECTION ASSAY - IC50): 5.08
15 | Cc1cc(C)cc(C(=O)NCC(=O)N(C)Cc2cn(-c3ccccc3)nc2-c2ccccc2)c1 | > 10 |  | pIC50 (PBLUC_HILL_SLOPE 2.80, 14.9, PBLUC_R_SQUARED 0.685, 0.405, read-out: LUCIFERASE INFECTION ASSAY - IC50): 5.12
16 | Cc1cccc(C)c1-n1c(=C(C#N)C#N)s/c(=C/c2ccc(Cl)c([N+](=O)[O-])c2)c1=O | 9.8 |  | pIC50 (FFLUC_HILL_SLOPE 2.98, FFLUC_R_SQUARED 0.465, HEPG2TOX_HILL_SLOPE 7.11, HEPG2TOX_R_SQUARED 0.701, PBLUC_HILL_SLOPE 34, PBLUC_R_SQUARED 0.394, read-out: LUCIFERASE INFECTION ASSAY - IC50): 5.04
17 | CN(C)c1cccc(-c2ccc3ncc(-c4ccoc4)n3n2)c1 | 9.49 |  | pIC50 (PBLUC_HILL_SLOPE 19.8, PBLUC_R_SQUARED 0.226, read-out: LUCIFERASE INFECTION ASSAY - IC50): 5.07
18 | CCOc1ccc(NS(=O)(=O)c2ccc(NC(=O)c3ccc(OC)c(S(=O)(=O)N4CCCCC4C)c3)cc2)cc1 (stereo not drawn) | > 10 |  | pIC50 (PBLUC_HILL_SLOPE 11.8, PBLUC_R_SQUARED 0.201, read-out: LUCIFERASE INFECTION ASSAY - IC50): 5.03
19 | O=C(CC12CC3CC(CC(C3)C1)C2)Nc1ccc(C(F)(F)F)cc1 | > 9.78 | < 5.01 | 
20 | CCCCCCCCC/C(=N\O)c1ccccn1 | 11.9 |  | pIC50 (HEPG2TOX_HILL_SLOPE 8.74, HEPG2TOX_R_SQUARED 0.63, PBLUC_HILL_SLOPE 40.5, PBLUC_R_SQUARED 0.34, read-out: LUCIFERASE INFECTION ASSAY - IC50): 4.95
21 | Cc1cccc(N2CCN(C(=O)/C=C/c3cnn(-c4ccccc4)c3)CC2)c1 | > 10 | < 5.00 | 
22 | Cc1nn(-c2ccccc2)c2c1C1(C(=O)Nc3ccccc31)N1N=NN(c3ccccc3)C1=N2 (stereo not drawn) | > 10 |  | pIC50 (PBLUC_HILL_SLOPE 0.947, PBLUC_R_SQUARED 0.0755, read-out: LUCIFERASE INFECTION ASSAY - IC50): < 5.00

Row | SMILES | IC90 [µM] | pIC50 [1] | other results
23 | COc1ccc(NC(=O)c2cc(S(N)(=O)=O)ccc2Br)cc1Cc1ccccc1 | > 10 | < 5.00 | 
24 | Fc1ccc(-c2ccnc3n[nH]c(C4CC4)c23)cc1Cl | > 10 |  | pIC50 (HEPG2TOX_HILL_SLOPE 9.31, HEPG2TOX_R_SQUARED 0.217, read-out: LUCIFERASE INFECTION ASSAY - IC50): < 5.00
25 | CC(C)(C)c1ccc(/C=C2\CCc3c2nc2ccccc2c3C(=O)OCC#N)cc1 | > 10 | < 5.00 | 
26 | C/N=c1\scc(-c2ccc(C)c(C)c2)n1/N=C/c1ccc[nH]1 | > 10 |  | pIC50 (FFLUC_HILL_SLOPE 1.19, FFLUC_R_SQUARED 0.95, read-out: LUCIFERASE INFECTION ASSAY - IC50): < 5.00
27 | O=S(=O)(Nc1ccc(OC(F)(F)F)cc1)c1ccc(S(=O)(=O)c2ncc(C(F)(F)F)cc2Cl)s1 | > 5.82 |  | pIC50 (FFLUC_HILL_SLOPE 4.61, FFLUC_R_SQUARED 0.168, read-out: LUCIFERASE INFECTION ASSAY - IC50): < 5.24
28 | COC(=O)c1c(C)[nH]c(C(=O)C(C)OC(=O)Cn2c(C(F)(F)F)nc3ccccc32)c1C (stereo not drawn) | > 10 |  | pIC50 (HEPG2TOX_HILL_SLOPE 1.23, HEPG2TOX_R_SQUARED 0.914, read-out: LUCIFERASE INFECTION ASSAY - IC50): < 5.00
29 | COc1cc(/C=C2/C(=O)N(C)c3ccccc32)cc(OC)c1 | > 10 | < 5.00 | 
30 | O=C1C(=O)N(Cc2ccccc2F)c2c1cccc2C(F)(F)F | > 10.2 |  | pIC50 (FFLUC_HILL_SLOPE 1.03, FFLUC_R_SQUARED 0.0461, HEPG2TOX_HILL_SLOPE 15.2, HEPG2TOX_R_SQUARED 0.946, PBLUC_HILL_SLOPE 1.65, PBLUC_R_SQUARED 0.631, read-out: LUCIFERASE INFECTION ASSAY - IC50): 5.53
31 | COC(=O)c1ccc(-n2c(C)cc(C(=O)COC(=O)c3cc4c(=O)n5ccccc5nc4s3)c2C)cc1 | > 10 | 5.03 | 
32 | Cn1c(=O)[nH]c(=O)c2c1nc(Nc1ccc(Cl)cc1Cl)n2CC(=O)O | > 10 | < 5.00 | 
33 | COc1cc(C)c(C(c2ccc(N(C)C)cc2)c2ccc(N(C)C)cc2)cc1C | 6.45 |  | pIC50 (HEPG2TOX_HILL_SLOPE 7.41, HEPG2TOX_R_SQUARED 0.305, PBLUC_HILL_SLOPE 5.23, PBLUC_R_SQUARED 0.705, read-out: LUCIFERASE INFECTION ASSAY - IC50): 5.37
34 | O=C(CN1CCCCC1)Nc1c(F)cccc1F | > 13 | < 4.89 | 
35 | Cc1cc(OCc2nc3ccc(Cl)cc3[nH]2)c(C(C)C)cc1Cl | > 10 | < 5.00 | 
36 | Cc1ccc(-c2cc(C(=O)NNC(=O)CC34CC5CC(CC(C5)C3)C4)c3ccccc3n2)cc1 | > 10 | < 5.00 | 
37 | COc1cc(N2C(=O)C=CC2=O)cc(OC)c1OC | > 12.5 |  | pIC50 (HEPG2TOX_HILL_SLOPE 7.92, HEPG2TOX_R_SQUARED 0.512, PBLUC_HILL_SLOPE 9.52, PBLUC_R_SQUARED 0.0663, read-out: LUCIFERASE INFECTION ASSAY - IC50): < 4.90
38 | N#C/C(=N\Nc1ccc(Cl)cc1)S(=O)(=O)c1ccc(Cl)cc1 | 3.93 |  | pIC50 (HEPG2TOX_HILL_SLOPE 1.06, HEPG2TOX_R_SQUARED 0.975, PBLUC_HILL_SLOPE 5.18, PBLUC_R_SQUARED 0.893, read-out: LUCIFERASE INFECTION ASSAY - IC50): 5.59
39 | C=CCNC(=O)NCC(=O)c1cc(C)n(-c2ccc(C(C)C)cc2)c1C | 3.66 |  | pIC50 (HEPG2TOX_HILL_SLOPE 1.75, HEPG2TOX_R_SQUARED 0.807, PBLUC_HILL_SLOPE 19, PBLUC_R_SQUARED 0.54, read-out: LUCIFERASE INFECTION ASSAY - IC50): 5.49
40 | Cc1ccc(Nc2ccc(S(=O)(=O)NC3=NCCCCC3)cc2[N+](=O)[O-])cc1 | > 10 |  | pIC50 (HEPG2TOX_HILL_SLOPE 0.294, HEPG2TOX_R_SQUARED 0.717, PBLUC_HILL_SLOPE 0.103, PBLUC_R_SQUARED 0.0204, read-out: LUCIFERASE INFECTION ASSAY - IC50): < 5.00
41 | O=C(Nc1ccc(Cl)c(C(F)(F)F)c1)c1[nH]nc2ccccc12 | > 10 | < 5.00 | 
42 | Cc1cc(NC(=O)COc2ccc(C(C)C)cc2)no1 | > 12 | < 4.92 | 
43 | O=C(Nc1ccc(Cl)cc1)Nc1cc(Cl)c(-n2cccc2)cc1Cl | > 8.67 |  | pIC50 (FFLUC_HILL_SLOPE 11.8, FFLUC_R_SQUARED 0.707, PBLUC_HILL_SLOPE 1.68, PBLUC_R_SQUARED 0.178, read-out: LUCIFERASE INFECTION ASSAY - IC50): 5.17
44 | CC(C(=O)Nc1cccc(C#Cc2cccs2)c1)n1cnc2ccccc21 (stereo not drawn) | > 10 | < 5.00 | 
